Results from ChEMBL document CHEMBL1201862, “PubChem BioAssay data set” (2004).
Values belong to the compound of their own block, whether it stands above or below them. Calls of active or inactive are those of the source.

Legend:
Fatty acid synthase [1] = target: T1, Fatty acid synthase (Homo sapiens, UniProt P49327); assay: FAS thioesterase domain inhibitors, dose response, biochemical, endpoint fluorescence intensity, uHTS hits (AID 624327); assay type: functional;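 further: fluorescence from hydrolysis of an O-methyl fluorescein acyl ester substrate by the enzyme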
T1 sequence (P49327 whole entry, the tested form may be a part): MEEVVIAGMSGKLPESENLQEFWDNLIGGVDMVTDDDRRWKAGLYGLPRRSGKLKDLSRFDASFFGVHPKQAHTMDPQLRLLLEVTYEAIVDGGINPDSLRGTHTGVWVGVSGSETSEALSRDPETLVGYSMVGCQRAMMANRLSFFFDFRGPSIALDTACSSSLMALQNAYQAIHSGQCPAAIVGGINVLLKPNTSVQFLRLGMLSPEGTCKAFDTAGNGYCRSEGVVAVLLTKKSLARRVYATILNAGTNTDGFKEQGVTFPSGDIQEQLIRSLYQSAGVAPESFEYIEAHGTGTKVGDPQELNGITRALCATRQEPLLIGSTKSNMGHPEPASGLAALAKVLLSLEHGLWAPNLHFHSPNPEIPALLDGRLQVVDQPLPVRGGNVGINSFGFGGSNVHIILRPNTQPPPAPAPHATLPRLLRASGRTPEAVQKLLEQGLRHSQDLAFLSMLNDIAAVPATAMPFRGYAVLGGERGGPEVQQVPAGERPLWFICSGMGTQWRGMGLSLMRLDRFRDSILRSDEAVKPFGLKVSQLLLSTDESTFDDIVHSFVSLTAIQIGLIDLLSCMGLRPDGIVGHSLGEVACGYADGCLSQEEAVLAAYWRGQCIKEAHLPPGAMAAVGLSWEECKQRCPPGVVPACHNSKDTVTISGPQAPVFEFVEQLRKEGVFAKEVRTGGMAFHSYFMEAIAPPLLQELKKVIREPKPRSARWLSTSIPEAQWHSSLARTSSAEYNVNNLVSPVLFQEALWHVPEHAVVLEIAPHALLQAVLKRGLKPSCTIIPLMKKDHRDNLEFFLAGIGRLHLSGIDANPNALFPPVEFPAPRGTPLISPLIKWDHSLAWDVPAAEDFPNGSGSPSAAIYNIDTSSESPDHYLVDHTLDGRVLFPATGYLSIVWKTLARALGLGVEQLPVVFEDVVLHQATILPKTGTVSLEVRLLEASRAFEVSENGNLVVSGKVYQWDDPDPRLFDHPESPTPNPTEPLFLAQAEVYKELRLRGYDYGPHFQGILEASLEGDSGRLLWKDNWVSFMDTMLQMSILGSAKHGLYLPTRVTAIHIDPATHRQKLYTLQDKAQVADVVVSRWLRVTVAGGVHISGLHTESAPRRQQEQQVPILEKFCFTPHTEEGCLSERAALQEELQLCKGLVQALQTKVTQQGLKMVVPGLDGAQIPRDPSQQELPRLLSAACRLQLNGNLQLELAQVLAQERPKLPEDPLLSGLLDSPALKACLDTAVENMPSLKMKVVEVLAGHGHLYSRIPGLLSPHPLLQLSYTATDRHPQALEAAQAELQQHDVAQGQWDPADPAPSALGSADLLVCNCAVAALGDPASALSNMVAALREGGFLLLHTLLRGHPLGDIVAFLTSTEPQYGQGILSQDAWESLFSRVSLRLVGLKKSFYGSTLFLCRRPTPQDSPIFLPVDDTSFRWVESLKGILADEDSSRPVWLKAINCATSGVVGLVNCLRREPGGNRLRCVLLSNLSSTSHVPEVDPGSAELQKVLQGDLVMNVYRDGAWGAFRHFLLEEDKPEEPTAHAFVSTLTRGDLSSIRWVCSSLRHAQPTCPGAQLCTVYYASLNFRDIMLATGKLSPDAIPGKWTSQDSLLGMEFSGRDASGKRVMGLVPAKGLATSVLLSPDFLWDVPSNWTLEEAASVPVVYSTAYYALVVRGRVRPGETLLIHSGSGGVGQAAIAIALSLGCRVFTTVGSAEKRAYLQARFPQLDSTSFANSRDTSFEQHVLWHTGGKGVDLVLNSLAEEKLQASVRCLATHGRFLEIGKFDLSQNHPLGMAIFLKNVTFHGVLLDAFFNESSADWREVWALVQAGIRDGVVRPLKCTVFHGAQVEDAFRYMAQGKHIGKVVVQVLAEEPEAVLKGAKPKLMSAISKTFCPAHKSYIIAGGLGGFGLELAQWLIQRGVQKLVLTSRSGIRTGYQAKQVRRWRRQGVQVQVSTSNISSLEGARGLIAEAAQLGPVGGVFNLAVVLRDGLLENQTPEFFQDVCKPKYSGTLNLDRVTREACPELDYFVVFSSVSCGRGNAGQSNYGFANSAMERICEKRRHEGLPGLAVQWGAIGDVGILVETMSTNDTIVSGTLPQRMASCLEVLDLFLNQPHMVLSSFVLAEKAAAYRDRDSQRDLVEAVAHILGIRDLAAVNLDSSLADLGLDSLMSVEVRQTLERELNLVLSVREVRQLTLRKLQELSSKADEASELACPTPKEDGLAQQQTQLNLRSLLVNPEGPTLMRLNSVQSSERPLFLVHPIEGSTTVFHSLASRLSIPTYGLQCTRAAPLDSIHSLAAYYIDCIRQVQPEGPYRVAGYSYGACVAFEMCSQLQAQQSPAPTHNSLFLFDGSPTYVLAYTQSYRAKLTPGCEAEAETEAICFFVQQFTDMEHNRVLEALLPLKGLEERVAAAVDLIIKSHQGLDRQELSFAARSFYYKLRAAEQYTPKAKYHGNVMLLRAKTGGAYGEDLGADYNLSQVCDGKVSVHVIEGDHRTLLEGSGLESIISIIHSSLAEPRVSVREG

Fatty acid synthase [2] = target: T1, Fatty acid synthase; assay: FAS thioesterase domain inhibitors, dose response, biochemical, kinetic fluorescence intensity (AID 624326); assay type: functional;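 further: rate of fluorescence rise from hydrolysis of a fluorogenic O-methyl fluorescein ester substrate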
[3] = target: T2, Short transient receptor potential channel 4 (Mus musculus, UniProt Q9QUQ5); assay: mouse TRPC4 channel activators, dose response, cell-based, HEK293 TRPC4/mu-opioid, Fluo-4 calcium (AID 434937); assay type: functional
T2 sequence (Q9QUQ5 whole entry): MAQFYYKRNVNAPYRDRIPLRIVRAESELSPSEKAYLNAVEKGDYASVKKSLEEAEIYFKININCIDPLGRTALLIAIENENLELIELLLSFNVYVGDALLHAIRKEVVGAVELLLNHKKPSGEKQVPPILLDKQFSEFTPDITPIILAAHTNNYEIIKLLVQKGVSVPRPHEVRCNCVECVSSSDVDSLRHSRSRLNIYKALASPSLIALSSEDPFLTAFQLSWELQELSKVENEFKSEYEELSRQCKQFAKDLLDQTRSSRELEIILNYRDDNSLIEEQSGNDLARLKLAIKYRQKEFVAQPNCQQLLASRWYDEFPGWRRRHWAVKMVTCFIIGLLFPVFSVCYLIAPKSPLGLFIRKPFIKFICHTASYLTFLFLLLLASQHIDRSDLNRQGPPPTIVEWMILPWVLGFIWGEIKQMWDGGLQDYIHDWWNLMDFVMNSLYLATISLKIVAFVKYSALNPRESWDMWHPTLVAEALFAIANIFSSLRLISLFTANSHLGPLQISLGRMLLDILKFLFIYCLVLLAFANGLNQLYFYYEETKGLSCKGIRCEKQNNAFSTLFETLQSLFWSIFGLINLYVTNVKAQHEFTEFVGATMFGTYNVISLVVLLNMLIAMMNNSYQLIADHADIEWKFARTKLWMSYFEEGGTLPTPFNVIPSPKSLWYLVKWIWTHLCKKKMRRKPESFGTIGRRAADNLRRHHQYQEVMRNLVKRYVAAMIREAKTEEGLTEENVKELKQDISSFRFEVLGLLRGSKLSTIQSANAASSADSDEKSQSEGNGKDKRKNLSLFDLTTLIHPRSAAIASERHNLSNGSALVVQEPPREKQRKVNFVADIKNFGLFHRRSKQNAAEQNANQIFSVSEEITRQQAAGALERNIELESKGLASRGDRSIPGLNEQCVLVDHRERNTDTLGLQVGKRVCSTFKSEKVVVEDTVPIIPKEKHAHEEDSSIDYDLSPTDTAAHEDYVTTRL

[4] = target: FAD-linked sulfhydryl oxidase ALR (Homo sapiens, UniProt P55789); assay: inhibitors of human ALR sulfhydryl oxidase, dose response, biochemical, H2O2 detection, luminescence, cherry-pick (AID 493248)
Chain of FAD-linked sulfhydryl oxidase ALR (P55789 whole entry): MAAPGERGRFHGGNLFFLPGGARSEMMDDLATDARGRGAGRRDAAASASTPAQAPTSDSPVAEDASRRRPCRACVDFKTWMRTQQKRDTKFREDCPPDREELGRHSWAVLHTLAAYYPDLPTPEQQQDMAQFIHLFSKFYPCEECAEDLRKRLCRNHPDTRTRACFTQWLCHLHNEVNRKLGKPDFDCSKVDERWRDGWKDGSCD

[5] = target: T3, High affinity choline transporter 1 (Homo sapiens, UniProt Q9GZV3); assay: CHT inhibitors, dose response, cell-based, 5-point CRC, membrane potential dye (AID 504840); assay type: functional
T3 sequence (Q9GZV3 whole entry): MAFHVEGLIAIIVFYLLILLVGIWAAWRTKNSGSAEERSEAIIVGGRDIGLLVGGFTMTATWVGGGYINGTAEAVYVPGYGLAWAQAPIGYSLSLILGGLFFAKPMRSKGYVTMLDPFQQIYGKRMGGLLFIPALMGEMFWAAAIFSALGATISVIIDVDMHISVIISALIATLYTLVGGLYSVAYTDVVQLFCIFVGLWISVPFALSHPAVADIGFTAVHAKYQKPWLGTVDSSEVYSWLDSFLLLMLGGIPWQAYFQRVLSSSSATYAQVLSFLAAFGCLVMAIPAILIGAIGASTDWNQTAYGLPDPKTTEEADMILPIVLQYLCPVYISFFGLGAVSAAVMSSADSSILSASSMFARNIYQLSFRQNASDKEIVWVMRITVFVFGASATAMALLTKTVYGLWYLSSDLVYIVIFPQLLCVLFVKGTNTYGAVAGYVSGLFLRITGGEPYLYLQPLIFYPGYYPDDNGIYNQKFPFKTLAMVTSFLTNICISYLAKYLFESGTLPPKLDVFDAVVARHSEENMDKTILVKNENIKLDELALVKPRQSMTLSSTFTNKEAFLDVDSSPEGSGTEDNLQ

Protein skinhead-1 = target: T4, Protein skinhead-1 (Caenorhabditis elegans, UniProt P34707); assay type: functional
T4 sequence (P34707 whole entry): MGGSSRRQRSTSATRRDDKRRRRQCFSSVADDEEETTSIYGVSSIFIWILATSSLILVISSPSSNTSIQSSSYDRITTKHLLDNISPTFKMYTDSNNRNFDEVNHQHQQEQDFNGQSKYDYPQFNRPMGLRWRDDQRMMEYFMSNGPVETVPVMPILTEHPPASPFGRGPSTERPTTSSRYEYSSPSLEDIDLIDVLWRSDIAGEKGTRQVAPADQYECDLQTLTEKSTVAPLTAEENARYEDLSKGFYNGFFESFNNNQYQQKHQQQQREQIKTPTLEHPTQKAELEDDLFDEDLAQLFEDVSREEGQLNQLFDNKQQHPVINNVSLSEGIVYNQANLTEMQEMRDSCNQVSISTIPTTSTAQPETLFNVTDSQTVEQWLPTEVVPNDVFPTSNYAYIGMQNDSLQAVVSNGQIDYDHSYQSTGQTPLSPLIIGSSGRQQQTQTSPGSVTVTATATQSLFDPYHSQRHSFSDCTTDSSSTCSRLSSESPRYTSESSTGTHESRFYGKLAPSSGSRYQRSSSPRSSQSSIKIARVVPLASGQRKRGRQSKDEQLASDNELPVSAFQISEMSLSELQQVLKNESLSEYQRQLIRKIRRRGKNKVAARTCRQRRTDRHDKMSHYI

cells [6] = assay type: functional, cell-based
cells [7] = assay type: functional, cell-based; remark: listed apart in the source
[8] = inhibitors of intracellular T. cruzi replication, confirmation, NIH3T3 host cells, beta-gal luminescence (AID 2044); assay type: functional, cell-based;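 further: intracellular parasites grown in NIH/3T3 mouse fibroblasts as host cells; luminescent beta-galactosidase reporter signal from transgenic T. cruzi replicating inside host cells; inhibitors lower the luminescence signal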
[9] = Luminescence Cell-Based Dose Retest to Confirm Inhibitors of Cancer Stem Cells. [Related pubchem assays (depositor defined):AID2717, AID2721]; assay type: functional; conditions: Homo sapiens
[10] = cytotoxicity toward NIH3T3 fibroblasts, dose response, counter-screen, cell-based, ATP luminescence, mouse fibroblasts (AID 2010); assay type: functional;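 further: cells exposed to compound for about 90 hours before reading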
[11] = target: T5, Polyadenylate-binding protein 1 (Homo sapiens, UniProt P11940); assay: PABP1 MLLE–PAM2 interaction inhibitors, dose response, miRNA deadenylation inhibitor project, biochemical, fluorescence polarization, Cy5-PAM2 peptide, secondary (AID 602260); assay type: functional; conditions: read-out: IC50_Mean
T5 sequence (P11940 whole entry): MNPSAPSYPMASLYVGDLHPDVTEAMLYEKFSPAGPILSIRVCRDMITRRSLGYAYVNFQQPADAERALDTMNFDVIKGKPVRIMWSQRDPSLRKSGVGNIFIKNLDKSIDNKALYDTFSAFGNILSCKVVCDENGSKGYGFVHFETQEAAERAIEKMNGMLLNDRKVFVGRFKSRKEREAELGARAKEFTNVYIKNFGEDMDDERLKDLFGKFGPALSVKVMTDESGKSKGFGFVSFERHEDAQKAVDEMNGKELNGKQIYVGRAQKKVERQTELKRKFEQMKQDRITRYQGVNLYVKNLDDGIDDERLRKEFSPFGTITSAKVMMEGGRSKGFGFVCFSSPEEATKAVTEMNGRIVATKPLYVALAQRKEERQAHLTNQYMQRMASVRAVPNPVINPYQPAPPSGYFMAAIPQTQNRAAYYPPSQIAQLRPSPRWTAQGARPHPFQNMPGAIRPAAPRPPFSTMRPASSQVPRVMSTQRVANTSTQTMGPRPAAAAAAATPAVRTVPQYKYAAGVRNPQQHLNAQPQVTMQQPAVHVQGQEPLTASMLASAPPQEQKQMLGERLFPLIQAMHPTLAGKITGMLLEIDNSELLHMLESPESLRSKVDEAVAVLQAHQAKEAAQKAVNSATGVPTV

[12] = target: T5, Polyadenylate-binding protein 1; assay: PABP1 MLLE–PAM2 binding inhibitor potency, dose response, biochemical, fluorescence polarization, FITC-PAM2 peptide (AID 602259); assay type: functional; conditions: read-out: IC50_Mean
[13] = system: Streptococcus sp. 'group A'; assay: growth inhibition of control SK(-) GAS strain, dose response, counter-screen for streptokinase expression inhibitor project, luminescence, kanamycin, BacTiterGlo, confirmation (AID 1900); assay type: functional, organism-based
Streptococcus = assay: Group A Streptococcus viability loss, dose response, counter-screen for streptokinase expression inhibitor project, luminescence, BacTiterGlo (AID 1915); assay type: functional, organism-based;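 further: potency for reduction of bacterial viability or growth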
[14] = control 3'UTR Renilla luciferase suppression, dose response, counter-screen for Shn3 inhibitor project, cell-based, Clone20-Shn3RL, cherry-picked (AID 624133); assay type: functional
[15] = Shn3 3'UTR reporter inhibitors, dose response, cell-based, Clone20 osteoblasts, firefly luciferase, cherry-picked (AID 624132); assay type: functional;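 further: firefly luciferase luminescence from reporter carrying the Shn3 3'UTR in osteoblasts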
INS1 = assay: beta cell apoptosis inhibitors, cytokine rescue, dose response, luminescence, retest (AID 449756); assay type: functional, cell-based; conditions: Rattus norvegicus;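 further: cell death triggered by IL-1 beta plus TNF-alpha plus IFN-gamma mixture; protective hits raise ATP signal compared with cytokine alone wells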
Paired box protein Pax-8 = Paired box protein Pax-8 (Homo sapiens, UniProt Q06710); assay: inhibitors of PAX8-driven TPO luciferase reporter, dose response, RMG-I cells, cherry-pick (AID 687027); assay type: functional, cell-based;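 further: luciferase reporter driven by Pax8 target thyroperoxidase promoter measured by SteadyGlo luminescence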
Chain of Paired box protein Pax-8 (Q06710 whole entry): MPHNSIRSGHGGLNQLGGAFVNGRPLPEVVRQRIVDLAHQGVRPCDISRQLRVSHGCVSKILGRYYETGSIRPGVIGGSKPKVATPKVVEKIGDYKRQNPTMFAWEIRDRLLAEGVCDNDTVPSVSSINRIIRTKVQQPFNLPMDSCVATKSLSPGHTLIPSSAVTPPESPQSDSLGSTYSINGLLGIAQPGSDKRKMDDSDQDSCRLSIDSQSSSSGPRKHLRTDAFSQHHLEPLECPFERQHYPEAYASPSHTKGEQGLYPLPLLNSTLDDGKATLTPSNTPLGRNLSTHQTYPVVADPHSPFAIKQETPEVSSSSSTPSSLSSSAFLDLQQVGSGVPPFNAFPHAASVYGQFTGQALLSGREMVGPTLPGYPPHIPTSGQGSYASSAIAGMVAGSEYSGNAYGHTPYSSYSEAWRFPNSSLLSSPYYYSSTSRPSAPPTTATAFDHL

[16] = NIH:OVCAR-3 ovarian cancer cell cytotoxicity, dose response, PAX8 inhibitor project, plate reader, dry powder samples (AID 743044); assay type: functional, cell-based

IC50 (Fatty acid synthase [1]): 9.08 µM (active)
IC50 (Fatty acid synthase [2]): 8.77 µM (active)
Compound: CC(C)(C)C(=O)Nc1nc(C2CCCN2S(=O)(=O)c2ccc(Cl)cc2)cs1 (stereo unspecified)

Compound: CCN1CCN(Cc2cc(Br)cc(Br)c2O)CC1
EC50 [3]: 0.0667 µM (active)
AC50 [4]: 11.2 µM (active)

IC50 [5]: 3.16 µM (active)
Compound: CC#CCN(CC#CC)S(=O)(=O)c1ccc(-n2cnnn2)c(OC)c1

IC50 (Protein skinhead-1): > 100 µM (inactive)
Compound: c1ccc(CSc2ccc(-c3ccco3)nn2)cc1

IC50 (Protein skinhead-1): > 100 µM (inactive)
Compound: CCCS(=O)(=O)N1CCC(C(=O)NCc2cccnc2)CC1

Compound: O=C(NC1=NCCS1)c1cccc(NC(=O)c2ccco2)c1
EC50 (cells [6]): > 350 µM (not active)
EC50 (cells [7]): > 350 µM (not active)

IC50 (Protein skinhead-1): > 100 µM (inactive)
Compound: CCCCOC(=O)c1ccc(NC(=O)/C=C/c2cccs2)cc1

Compound: Cc1ccc(NC(=S)N(Cc2cccs2)Cc2cc3cccc(C)c3nc2O)cc1
EC50 (cells [6]): > 350 µM (not active)
EC50 (cells [7]): > 350 µM (not active)

Compound: CCN1CCN(CCCOc2ccc(-c3ccccc3)cc2)CC1
EC50 (cells [6]): > 350 µM (not active)
EC50 (cells [7]): > 350 µM (not active)
EC50 [8]: 0.799 µM (active)
AC50 [9]: 4.69 µM (active)
EC50 [10]: 4.6 µM (active)

IC50 (Protein skinhead-1): 64.6 µM (inactive)
Compound: Fc1ccccc1CSc1ccc(-c2ccco2)nn1

IC50 (Fatty acid synthase [1]): 0.912 µM (active)
IC50 (Fatty acid synthase [2]): 1.05 µM (active)
Compound: O=C(COC(=O)c1cc([N+](=O)[O-])ccc1N1CCOCC1)NCc1ccc(Cl)cc1Cl

IC50 (Protein skinhead-1): > 100 µM (inactive)
Compound: Cc1ccc(N/C=C/C(=O)c2cccs2)cc1C

IC50 [11]: > 66 µM (inactive)
IC50 [12]: > 66 µM (inactive)
AC50 [4]: 0.582 µM (active)
Compound: O=C(NC1=NCCS1)c1csc2ccccc12

Compound: CCn1c(=O)c(C(=O)NNC(=O)c2ccccc2F)c(O)c2ccccc21
EC50 [3]: 6.68 µM (active)
EC50 [13]: 4.54 µM (active)
EC50 (Streptococcus): 11.5 µM (active)

IC50 [5]: 12 µM (active)
Compound: COc1ccc(C(=O)N(C)CCCC2CCCC2)cc1OC1CCN(C(C)C)CC1

IC50 (Fatty acid synthase [1]): 4.5 µM (active)
IC50 (Fatty acid synthase [2]): 4.35 µM (active)
Compound: O=C(NNS(=O)(=O)c1ccc([N+](=O)[O-])cc1)c1cnn(-c2ccccc2)c1-n1cccc1

IC50 [5]: 13.6 µM (active)
Compound: CCn1c(SCc2nc(-c3ccccc3)no2)nnc1-c1ccco1

Compound: CC1(C)CC(NC(=O)CCC2CCCC2)CC(C)(C)N1
EC50 (cells [6]): > 350 µM (not active)
EC50 (cells [7]): > 350 µM (not active)

IC50 [5]: 18.2 µM (active)
Compound: Cc1cccc(C)c1NC(=O)c1ccc(CN2CCc3ccccc3C2)cc1

IC50 [5]: 14.5 µM (active)
Compound: CCCc1cc(O)c2c(C)cc(=O)oc2c1

Compound: O=C(NC(=S)Nc1ccccn1)c1cc(-c2ccccc2)nc2ccccc12
EC50 (cells [6]): 47.1 µM (active)
EC50 (cells [7]): > 350 µM (not active)

IC50 (Fatty acid synthase [1]): 8.99 µM (active)
IC50 (Fatty acid synthase [2]): 9.8 µM (active)
Compound: Cc1ccc(C(=O)NCCNc2ncc(C(F)(F)F)cc2Cl)cc1[N+](=O)[O-]

Compound: Cc1ccc(Oc2ncc(CN3CC(C)OC(C)C3)s2)cc1 (stereo unspecified)
EC50 (cells [6]): > 350 µM (not active)
EC50 (cells [7]): > 350 µM (not active)

IC50 [5]: 12.9 µM (active)
Compound: Cc1cc(C)c(NC(=O)c2ccc(CN3CCc4ccccc4C3)cc2)c(C)c1

IC50 (Protein skinhead-1): 75.7 µM (inactive)
Compound: c1ccc(-c2noc(CSc3nc4ccccc4o3)n2)cc1

EC50 [3]: 5.31 µM (active)
Compound: Clc1cc(Cl)cc(C2=NC(Cc3ccccc3)CO2)c1 (stereo unspecified)

EC50 [3]: 0.0267 µM (active)
Compound: CN(C)C(CNC(=O)Nc1cccc(Cl)c1)c1cccnc1 (stereo unspecified)

Compound: C[C@H]1CCC/C=C/[C@@H]2C[C@H](O)C[C@H]2[C@@H](O)/C=C/C(=O)O1
AC50 [14]: 1.7 µM (active)
AC50 [15]: 2.17 µM (active)

IC50 (Fatty acid synthase [1]): 5.37 µM (active)
IC50 (Fatty acid synthase [2]): 8.01 µM (active)
Compound: O=S(=O)(Nc1cccc(-n2cnnn2)c1)c1cnc(Cl)c(Cl)c1

Compound: O=C(N/N=C\c1c(O)ccc2ccccc12)c1ccc(Cn2cccn2)o1
EC50 (cells [6]): > 350 µM (not active)
EC50 (cells [7]): 82 µM (active)
AC50 (INS1): 1.23 µM (active)

IC50 (Fatty acid synthase [1]): 7.19 µM (active)
IC50 (Fatty acid synthase [2]): 3.75 µM (active)
Compound: CC1(C)CC(=O)C=C(c2ccc(COC(=O)c3ccccc3)cc2)C1=O

Compound: C[C@@H]1CN([C@H](C)CO)C(=O)c2cccc(NC(=O)Nc3cccc4ccccc34)c2O[C@H]1CN(C)C(=O)Nc1ccc(C(F)(F)F)cc1
AC50 (Paired box protein Pax-8): 14.6 µM (active)
AC50 [16]: 64.2 µM (active)
